Results as given in ChEMBL document CHEMBL1201862, “PubChem BioAssay data set” (2004).
Calls of active or inactive are those of the source.

Tests used:
[1] = target: T1, Small ubiquitin-related modifier 2 (Homo sapiens, UniProt P61956); assay: SUMO2 binding disruption by SUMO1 hits – biochemical, FRET, human SUMO2, uHTS hits, selectivity assay for SUMO1 interaction inhibitor project, dose response (AID 624384); assay type: functional; conditions: read-out: IC50_Mean
[2] = Cytotoxicity screening for potential Inhibitors of Bacterial Capsule Biogenesis. [Related pubchem assays (depositor defined):AID488970]; assay type: functional
[3] = target: T2, Small ubiquitin-related modifier 1 (Homo sapiens, UniProt P63165); assay: SUMO1 protein interaction blockers, potency – biochemical, fluorescence polarization, uHTS hits, dose response (AID 624382); assay type: functional; conditions: read-out: IC50_Mean
[4] = CCR5-tropic HIV-1 fusion blockers – cell-based, CCR5-tropic Env, dose response (AID 2279); assay type: functional
[5] = target: T2, Small ubiquitin-related modifier 1; assay: SUMO1 protein-protein binding blockers, potency – biochemical, FRET, dose response (AID 624383); assay type: functional; conditions: read-out: IC50_Mean
Streptococcus = assay: GAS UMAA2166 growth inhibition – luminescence, BacTiterGlo, counter-screen for streptokinase expression inhibitor project, dose response (AID 1915); assay type: functional, organism-based;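 further: potency for reduction of bacterial viability or growth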
[6] = target: T1, Small ubiquitin-related modifier 2; assay: disruption of SUMO2 interaction with SIM peptide – biochemical, fluorescence polarization, uHTS hits, selectivity assay for SUMO1 interaction inhibitor project, dose response (AID 624385); assay type: functional; conditions: read-out: IC50_Mean
[7] = tested on: Streptococcus sp. 'group A'; assay: Streptococcus pyogenes SK(-)GAS viability under kanamycin – luminescence, BacTiterGlo, confirmation, counter-screen for streptokinase expression inhibitor project, dose response (AID 1900); assay type: functional, organism-based
Protein Rev = Protein Rev (Human immunodeficiency virus type 1 group M subtype B (isolate HXB2)(HIV-1), UniProt P04618); assay: blockers of HIV Rev/RRE RNA complex – biochemical, fluorescence polarization, HIV-1, dose response (AID 434976); design: species or system Human immunodeficiency virus 1
[8] = target: T3, RNA-binding protein pos-1 (Caenorhabditis elegans, UniProt G5EF15); assay: disruptors of C. elegans POS-1 RNA interaction – biochemical, fluorescence polarization, dose response (AID 1964);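 further: purified POS-1 fused to maltose binding protein made in E. coli; potency of compounds blocking POS-1 binding to fluorescent RNA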
T3 sequence (G5EF15 whole entry): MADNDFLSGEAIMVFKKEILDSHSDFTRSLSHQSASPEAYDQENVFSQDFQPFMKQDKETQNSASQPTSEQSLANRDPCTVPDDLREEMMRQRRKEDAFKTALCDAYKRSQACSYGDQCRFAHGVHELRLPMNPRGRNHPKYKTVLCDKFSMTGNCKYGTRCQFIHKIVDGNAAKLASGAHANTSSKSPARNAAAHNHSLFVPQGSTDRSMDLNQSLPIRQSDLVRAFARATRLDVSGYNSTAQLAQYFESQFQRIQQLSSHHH

[9] = target: Female germline-specific tumor suppressor gld-1 (Caenorhabditis elegans, UniProt Q17339); assay: blockers of GLD-1/TGE RNA complex formation – biochemical, fluorescence polarization, C. elegans, dose response (AID 2802);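 further: fluorescence polarization of labeled TGE RNA bound by purified gld-1 protein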
[10] = target: T4, Zinc finger protein mex-5 (Caenorhabditis elegans, UniProt Q9XUB2); assay: potency of MEX-5 RNA-binding blockers – biochemical, C. elegans, fluorescence polarization, dose response (AID 1960)
T4 sequence (Q9XUB2 whole entry): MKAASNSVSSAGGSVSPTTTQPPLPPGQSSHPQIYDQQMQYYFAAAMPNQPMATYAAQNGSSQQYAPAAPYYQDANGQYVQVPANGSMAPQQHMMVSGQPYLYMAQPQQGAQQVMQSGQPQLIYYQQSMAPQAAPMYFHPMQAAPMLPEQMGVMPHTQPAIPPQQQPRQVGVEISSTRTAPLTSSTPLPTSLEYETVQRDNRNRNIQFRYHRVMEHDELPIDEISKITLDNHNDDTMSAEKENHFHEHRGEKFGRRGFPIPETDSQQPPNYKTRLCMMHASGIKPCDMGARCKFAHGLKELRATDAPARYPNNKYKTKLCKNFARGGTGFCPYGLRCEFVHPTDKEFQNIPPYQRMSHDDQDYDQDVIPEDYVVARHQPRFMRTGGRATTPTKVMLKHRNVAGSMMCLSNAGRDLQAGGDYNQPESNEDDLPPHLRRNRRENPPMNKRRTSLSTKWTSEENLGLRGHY

Bcl-2-like protein 10 = Bcl-2-like protein 10 (Homo sapiens, UniProt Q9HD36); assay: Bcl-B/TR3 peptide binding disruption – biochemical, fluorescence polarization, FITC-TR3 peptide, selectivity assay for Bfl-1 inhibitor project, primary screen (AID 748);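 further: fluorescence polarization from a fluorescein-labelled TR3 peptide binding purified Bcl-B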
Estrogen receptor beta = Estrogen receptor beta (Homo sapiens, UniProt Q92731); assay: blockers of SRC-3 recruitment to ERβ – biochemical, ELISA, streptavidin-HRP readout, orthogonal assay, confirmation (AID 1060)
Estrogen receptor beta, sequence (Q92731 whole entry): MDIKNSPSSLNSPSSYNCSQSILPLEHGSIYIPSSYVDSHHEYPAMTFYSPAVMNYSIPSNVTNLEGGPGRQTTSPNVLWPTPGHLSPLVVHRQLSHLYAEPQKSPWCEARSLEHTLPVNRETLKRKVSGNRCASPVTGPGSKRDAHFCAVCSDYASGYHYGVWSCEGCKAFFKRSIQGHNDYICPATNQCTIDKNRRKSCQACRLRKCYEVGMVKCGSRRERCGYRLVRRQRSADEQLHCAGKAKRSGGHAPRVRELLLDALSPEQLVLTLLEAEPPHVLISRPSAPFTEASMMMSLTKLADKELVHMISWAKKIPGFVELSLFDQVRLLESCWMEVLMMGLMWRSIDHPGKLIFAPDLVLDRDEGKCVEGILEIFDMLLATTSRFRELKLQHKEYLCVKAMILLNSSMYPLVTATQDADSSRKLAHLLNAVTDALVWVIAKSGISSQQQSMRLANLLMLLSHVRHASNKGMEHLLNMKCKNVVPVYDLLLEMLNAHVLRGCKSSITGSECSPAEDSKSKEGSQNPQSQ

T2 sequence (P63165 whole entry, the tested form may be a part): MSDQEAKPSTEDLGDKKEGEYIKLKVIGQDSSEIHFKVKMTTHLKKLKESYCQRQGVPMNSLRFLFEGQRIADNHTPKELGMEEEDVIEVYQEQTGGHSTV
T1 sequence (P61956 whole entry): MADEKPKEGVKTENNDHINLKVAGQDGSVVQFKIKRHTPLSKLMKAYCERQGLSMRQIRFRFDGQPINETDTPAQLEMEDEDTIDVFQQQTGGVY
Protein Rev, sequence (P04618 whole entry, the tested form may be a part): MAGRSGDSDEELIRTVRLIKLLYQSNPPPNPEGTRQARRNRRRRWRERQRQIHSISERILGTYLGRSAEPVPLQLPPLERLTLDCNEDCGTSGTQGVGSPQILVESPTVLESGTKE
Female germline-specific tumor suppressor gld-1, sequence (Q17339 whole entry): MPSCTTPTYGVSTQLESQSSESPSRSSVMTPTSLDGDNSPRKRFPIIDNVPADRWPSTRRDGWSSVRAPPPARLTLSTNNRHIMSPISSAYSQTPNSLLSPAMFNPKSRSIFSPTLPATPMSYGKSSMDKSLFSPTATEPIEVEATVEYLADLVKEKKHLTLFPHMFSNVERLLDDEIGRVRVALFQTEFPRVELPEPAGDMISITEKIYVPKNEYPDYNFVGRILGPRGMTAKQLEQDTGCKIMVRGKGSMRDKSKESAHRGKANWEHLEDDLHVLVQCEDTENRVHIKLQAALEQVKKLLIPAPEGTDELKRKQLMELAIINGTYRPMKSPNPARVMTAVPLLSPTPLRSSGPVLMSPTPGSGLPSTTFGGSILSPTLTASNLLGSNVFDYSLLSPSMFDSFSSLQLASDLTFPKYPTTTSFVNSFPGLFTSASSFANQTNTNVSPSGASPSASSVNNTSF
Bcl-2-like protein 10, sequence (Q9HD36 whole entry): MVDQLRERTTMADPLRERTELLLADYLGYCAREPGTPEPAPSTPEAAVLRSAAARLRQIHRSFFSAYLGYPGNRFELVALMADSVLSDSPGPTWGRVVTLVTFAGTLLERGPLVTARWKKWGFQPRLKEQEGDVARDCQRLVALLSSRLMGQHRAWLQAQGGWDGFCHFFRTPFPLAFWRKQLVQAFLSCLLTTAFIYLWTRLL

**Q.** For `O=C(COc1ccc(Cl)cc1Cl)Nc1ccc(C(=O)Nc2ccccc2C(=O)O)cc1`, which IC50 [1] is on record?
**A.** The IC50 was 48.1 µM (inactive).

**Q.** What about the CC50 [2] of the same compound?
**A.** The CC50 was 45.3 µM (active).

**Q.** What about the IC50 [3] of the same compound?
**A.** The IC50 was 2.7 µM (active).

**Q.** And the IC50 [4]?
**A.** The IC50 was > 50 µM (active).

**Q.** And the IC50 [5]?
**A.** The IC50 was 11.3 µM (active).

**Q.** And the EC50 (Streptococcus)?
**A.** Its EC50 is > 150 µM (not active).

**Q.** And the IC50 [6]?
**A.** The IC50 was 13.3 µM (active).

**Q.** What about the EC50 [7] of the same compound?
**A.** Its EC50 is 3.72 µM (active).

**Q.** Which IC50 (Protein Rev) does the source give for `CCCn1c(N)c(N(CCOC)C(=O)Cc2ccc(S(=O)(=O)N3CCOCC3)s2)c(=O)[nH]c1=O` here?
**A.** Its IC50 is 39.6 µM (not active).

**Q.** What about the EC50 [8] of the same compound?
**A.** Its EC50 is > 300 µM (not active).

**Q.** What about the IC50 [9] of the same compound?
**A.** The IC50 was 16.2 µM (inactive).

**Q.** What about the EC50 [10] of the same compound?
**A.** The EC50 was > 300 µM (not active).

**Q.** What does the source list for `Cc1cc(C)n2nc(C(=O)OCC(=O)c3cc(C)n(C)c3C)nc2n1`?
**A.** IC50 (Bcl-2-like protein 10): 24.4 µM (active); IC50 (Estrogen receptor beta): > 50 µM (not active)
